Measurements from patent US20250127857A1, “A COMPOSITION COMPRISING IL-36 AND/OR IL-18 FOR USE IN TREATING OCULAR DISORDERS” (THE PROVOST, FELLOWS, FOUNDATION SCHOLARS, & THE OTHER …, priority 2021, published 2025).

What was measured:
[1] = system: primary human foetal RPE (hfRPE) cells; assay: Scratch assay in hfRPE cultures; assay type: cell-based; conditions: IL-18 10-1000 ng/ml, up to 18 hours
Experimental: FIG. 19 illustrates IL-18 induces fibroblast-like cells to migrate to close a wound created in human Retinal Pigment Epithelium monolayer in vitro, wherein primary human foetal RPE (hfRPE) cells were treated with control medium (0 ng/ml) or increasing doses of IL-18 (10-1000 ng/ml) immediately after making a scratch through the centre of the well, wherein microscopy images were acquired at the same location at baseline (0 hours) and then every 2 hours until 18 hours, representative images for each treatment group are shown, wherein cells were stained with DAPI to show the nuclei, and phalloidin to show F-actin, wherein Brightfield images (phase) are also shown;

[2] = system: laser induced CNV in WT mice; assay: Fibrovascular scarring after laser induced CNV, 14 days; assay type: in vivo, mouse; conditions: IL-18 0.3ng/eye intravitreally, vs vehicle control
Experimental: FIG. 24 illustrates IL-18 reduces the area of fibrovascular scarring, wherein WT mice underwent laser induced CNV and were injected intravitreally with IL-18 (0.3ng/eye), wherein 14 days later eyes were enucleated, flatmounts were stained with F4/80, vimentin and isolectin and imaged by confocal microscopy; and […]

[3] = molecular target: T1, IL-18BP (Homo sapiens, UniProt O95998); conditions: 1:1 stoichiometry; used for free IL-18 calculation (Migliorini et al., 2010); read-out: dissociation constant (Kd) of the IL-18/IL-18BP complex; cited from earlier work
T1 sequence (O95998 31-194): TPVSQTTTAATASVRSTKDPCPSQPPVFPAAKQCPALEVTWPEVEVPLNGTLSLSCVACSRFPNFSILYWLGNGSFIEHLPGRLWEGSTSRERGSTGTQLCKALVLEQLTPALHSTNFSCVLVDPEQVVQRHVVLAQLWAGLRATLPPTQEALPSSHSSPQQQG

[4] = system: VEGFR2; assay: qPCR of VEGFR levels in HRMEC treated with IL-18; assay type: cell-based, human; conditions: IL-18 100 ng/ml over timepoints
Experimental: FIG. 15 illustrates IL-18 reduces expression of VEGFR2 specifically in Human retinal endothelial cells (HRMECs), wherein HRMECs were treated with IL-18 (100 ng/ml) over timepoints indicated, wherein cells lysates were prepared for RNA isolation and underwent qPCR and ddCt method to assess relative expression of VEGFR levels, using B-actin as reference control, wherein RT-PCR data are means±SEM of n=3 independent experiments;
Confluent HRMECs were stimulated with 50 or 100 ng/ml of recombinant human IL-18 (SB-485232; GSK); 10 ng/ml of human IL-1α (R&D systems) or 50 ng/ml of human VEGF165 (Peprotech) diluted in complete growth medium, with complete growth media added to wells alone for ‘no treatment’. […]
All RT-PCR assays were carried out using the SensiFAST SYBR Hi-ROX Kit (Bioline) with primers designed using Primer-BLAST (NCBI). […] Data were analysed using the QuantStudio™ Design & Analysis software (Applied Biosystems) and using the comparative Ct (ΔΔCt) method where test samples were normalised to endogenous control (β-Actin) followed by normalising the ΔCt of test samples to sample control (untreated sample), then calculating 2^−ΔΔCt to find the relative fold change of test samples over sample control.

[5] = system: bone marrow derived MSCs; assay: Bone marrow derived mesenchymal stem cell activation (confocal microscopy); assay type: cell-based, mouse; conditions: IL-18 250 ng/ml, 8 h
Experimental: FIG. 21 illustrates IL-18 activates bone marrow derived mesenchymal stem cells, wherein bone marrow derived MSC's were treated with IL-18 at 250 ng/ml for 8 h and images using confocal microscopy, wherein cells were stained with phalloidin for F-actin, vimentin, smooth muscle actin (SMA) and collagen 1;
The femurs from mice were isolated and, using a 20 ml syringe, the bones were flushed with DMEM into a cell culture dish. The flushings were centrifuged for 5 minutes at 1000 rpm. The supernatant was poured off and resuspended in 1 ml of 15% FBS and aMEM media, and filtered through a 70 um nylon mesh into a 50 ml captube. A further 5 ml of 15% FBS and aMEM were added through the mesh tube into the same 50 ml cap tube, and plated in a TC coated dish and cultured in an incubator for 5 days. On Day 5, the dish was washed with PBS 3 times (using PBS with no magnesium or calcium),trypsinized and the trypsin pipetted onto the plate to break up the colonies. 10mis of 10% FBS and DMEM were added and the cells collected in a 50 ml cap tube and this process was repeated once more, centrifuged for 5 mins at 1000 rpm, supernatant poured off, cells resuspended in 1 ml of DMEM and 20% FBS, and plated in a T75 and fed every second day until cells were confluent. When cells were confluent, they were split 1 in 3.

[6] = system: occludin; assay: Occludin expression in HRMEC (qPCR and immunoblotting); assay type: cell-based, human
Experimental: FIG. 18 illustrates IL-18 drives expression of tight junction protein occludin and inhibits VEGF depletion of occluding, wherein HRMECS were treated with either VEGF, IL-18 or IL-1α for the timepoints indicated (top panel) and cells were prepared for RNA isolation and qPCR with expression of occluding measured, wherein HRMECs were treated with VEGF, IL-18 or IL-1 or combinations of these cytokines and cells were prepared for immunoblotting for expression of occludin and b-actin (lower panels);
Following transfer, membranes were blocked by incubating in 5% non-fat dried milk (Marvel) in TBS-T for 1 hour at room temperature whilst shaking. Membranes were incubated with primary antibody diluted in either 5% Marvel or BSA, depending on antibody specification, overnight at 4° C. with gentle agitation. Primary antibody was recovered and stored at −20. Membranes were washed three times in TBS-T for 5 minutes and membranes were incubated with secondary antibody, diluted in 5% Marvel, for 1 hour at room temperature. Secondary antibody was removed and discarded, and excess secondary was removed from the membranes by three 5-minute washes in TBS-T.
All RT-PCR assays were carried out using the SensiFAST SYBR Hi-ROX Kit (Bioline) with primers designed using Primer-BLAST (NCBI). For each target a master-mix comprising of 4 μl SYBR Green mix, 0.5 μl of Forward primer (4 μM) and 0.5 μl of Reverse primer (4 μM) along and 3 μl of RNAse free H2O was prepared and mixed thoroughly by vortexing. 8 μl of master-mix was added to each well of a 0.1 mL MicroAMP® Fast 96-well Reaction Plate (Applied Biosystems), along with 2 μl of cDNA and sealed using Optical adhesive film (Applied Biosystems) and spun down for 30 seconds in a centrifuge fitted with microplate rotor (Eppendorf) before running. Plate were run using a QuantStudio 3 real-time PCR System (Applied Biosystems) or the StepOnePlus Real-Time PCR System (Applied Biosystems), with run conditions set as: 50° C. for 2 mins, 95° C. for 10 minutes, 40 cycles of 95° C. for 15 seconds then 60° C. for 1 minute. To assess the quality of Primers a melt-curve stage was added: 95° C. for 1 second, 60° C. for 20 seconds, 95° C. for 1 second. Data were analysed using the QuantStudio™ Design & Analysis software (Applied Biosystems) and using the comparative Ct (ΔΔCt) method where test samples were normalised to endogenous control (β-Actin) followed by normalising the ΔCt of test samples to sample control (untreated sample), then calculating 2^−ΔΔCt to find the relative fold change of test samples over sample control.

## IL-18: recombinant human IL-18 (SB-485232; GSK)
[1]
  cell migration into wound in hfRPE monolayer: appearance of fibroblast-like cells that migrated across the wound
[2]
  vimentin positive staining (area of fibrovascular scarring): less vimentin positive staining
[3]
  Kd: 0.4 nM
[4]
  VEGFR2 expression: specifically reduces VEGFR2
[5]
  appearance of vimentin and SMA in MSCs: strong effect on the appearance of vimentin and SMA
  collagen in MSCs: increased collagen in MSCs
[6]; combination with VEGF, immunoblotting
  rescue of VEGF mediated occludin inhibition: can rescue VEGF inhibition of occluding
[6]; single cytokine
  expression of tight junction protein occludin: increased expression of this tight junction protein
